Results taken from paper PMC10535219, “Discovery and Potential Utility of a Novel Non-Invasive Ocular Delivery Platform” (Pharmaceutics, 2023).
Where two headings read alike, the source gives them in different places.

Legend:
[1] = Biodisposition of JV-DE1 eye drops in New Zealand rabbits (LC-MS/MS of plasma and ocular tissues); type: in vivo; conditions: rabbit; for Cmax / concentration at 0.5 h / concentration at 3 h / concentration at 6 h / concentration at 24 h: New Zealand; for Cmax: topical or ocular
Protocol: The in-life procedures and sample collections were performed at Joinn Laboratory Inc. (Suzhou, China). A single dose of 50 µL (120 µg) per eye of the 0.24% JV-DE1 eye drops was applied to both eyes of the animals at time 0 using a pipet. This dose was chosen based on the maximum amount deliverable as an eye drop. Blood samples were collected from all five study animals at 0 h pre-dosing. […] Plasma samples were collected before each euthanization.
Sample preparation and bioanalysis were performed at Medicilon Preclinical Research LLC (Shanghai, China). Solid ocular tissues were homogenized with 9- to 49-fold (1 g tissue in 9 mL to 49 mL, w/v) of cold homogenization buffer (50% methanol/H2O). Aliquots of plasma or aqueous humor, as well as the homogenized tissue samples, were mixed with 8-fold volumes of 200 ng/mL warfarin in a methanol solution. After vortexing and centrifuging, an aliquot of supernatants was transferred to a 96-well plate for LC-MS/MS analysis. JV-DE1 is a synthesized new chemical entity (NCE). The absence of the endogenous compound was verified by JeniVision with a battery of pre-clinical GLP and non-GLP studies, including analytical studies in monkey, dog, and rabbit tissues.
The liquid chromatography (LC) system comprised a Waters (Waters Corporation, Milford, CT, USA) Ultra Performance Liquid Chromatography (UPLC) equipped with an ACQUITY UPLC binary solvent manager, an ACQUITY UPLC sample manager, an ACQUTIY UPLC sample organizer, and an ACQUITY UPLC column heater HT. The mass spectrometric (MS) analysis was performed using a Triple Quad 6500+ (Applied Biosystems/MDS Sciex, Concord, ON, Canada) with an ESI ion source. The data acquisition and control system were created using Analyst 1.6.3 and 1.7.1 Software from Applied Biosystems/MDS Sciex. The LC/MS conditions for JV-DE1 are described in Supplementary Table S1a–c.

human IP receptor = target: human IP receptor; parameters: method as in PMID 16331286; conditions: cited from earlier work
[2] = single eye drop 120 μg/eye OD, 0.5 h
[3] = single eye drop 120 μg/eye OD, 3 h
[4] = single eye drop 120 μg/eye OD, 6 h
[5] = single eye drop 120 μg/eye OD, 24 h

Question: Which results are given for `CC(C)Oc1ccc(Cc2ccc(NC3=NCCN3)cc2)cc1` [JV-DE1, 4,5-dihydro-N-[4-[[4-(1-methylethoxy)phenyl]methyl]phenyl]-1H-imadazol-2-amine]?
Answer: Cmax ([1]; anterior sclera, 120 ug, eye drop 120 µg/eye, read-out: Cmax in anterior sclera): 1790 ng/g; concentration at 0.5 h ([1]; anterior sclera, topical, 120 µg/eye, single eye drop 120 μg/eye OD, 0.5 h, read-out: Drug in OD Tissues, Anterior sclera): 1790 ng/g; concentration at 3 h ([1]; anterior sclera, topical, 120 µg/eye, single eye drop 120 μg/eye OD, 3 h, read-out: Drug in OD Tissues, Anterior sclera): 926 ng/g; concentration at 6 h ([1]; anterior sclera, topical, 120 µg/eye, single eye drop 120 μg/eye OD, 6 h, read-out: Drug in OD Tissues, Anterior sclera): 1480 ng/g; concentration at 24 h ([1]; anterior sclera, topical, 120 µg/eye, single eye drop 120 μg/eye OD, 24 h, read-out: Drug in OD Tissues, Anterior sclera): 93.2 ng/g; Cmax ([1]; bulbar conjunctiva, 120 ug, eye drop 120 µg/eye, read-out: Cmax in bulbar conjunctiva): ~16000 ng/g; Cmax ([1]; ciliary body/iris, 120 ug, eye drop 120 µg/eye, read-out: Cmax in ciliary body/iris): 305 ng/g; concentration at 0.5 h ([1]; ciliary body/iris, topical, 120 µg/eye, single eye drop 120 μg/eye OD, 0.5 h, read-out: Drug in OD Tissues, Ciliary body/iris): 105 ng/g; concentration at 3 h ([1]; ciliary body/iris, topical, 120 µg/eye, single eye drop 120 μg/eye OD, 3 h, read-out: Drug in OD Tissues, Ciliary body/iris): 305 ng/g; concentration at 6 h ([1]; ciliary body/iris, topical, 120 µg/eye, single eye drop 120 μg/eye OD, 6 h, read-out: Drug in OD Tissues, Ciliary body/iris): 231 ng/g; concentration at 24 h ([1]; ciliary body/iris, topical, 120 µg/eye, single eye drop 120 μg/eye OD, 24 h, read-out: Drug in OD Tissues, Ciliary body/iris): 28.9 ng/g; concentration at 0.5 h ([1]; conjunctiva, other: eye drop applied to the eye, single eye drop 120 μg/eye OD, 0.5 h, read-out: Drug in OD Tissues, Conjunctiva): 16500 ng/g; concentration at 3 h ([1]; conjunctiva, other: eye drop applied to the eye, single eye drop 120 μg/eye OD, 3 h, read-out: Drug in OD Tissues, Conjunctiva): 5180 ng/g; concentration at 6 h ([1]; conjunctiva, other: eye drop applied to the eye, single eye drop 120 μg/eye OD, 6 h, read-out: Drug in OD Tissues, Conjunctiva): 566 ng/g; concentration at 24 h ([1]; conjunctiva, other: eye drop applied to the eye, single eye drop 120 μg/eye OD, 24 h, read-out: Drug in OD Tissues, Conjunctiva): 994 ng/g; Cmax ([1]; cornea, 120 ug, eye drop 120 µg/eye, read-out: Cmax in cornea): ~12000 ng/g; concentration at 0.5 h ([1]; cornea, topical, 120 µg/eye, single eye drop 120 μg/eye OD, 0.5 h, read-out: Drug in OD Tissues, Cornea): 12100 ng/g; concentration at 3 h ([1]; cornea, topical, 120 µg/eye, single eye drop 120 μg/eye OD, 3 h, read-out: Drug in OD Tissues, Cornea): 5950 ng/g; concentration at 6 h ([1]; cornea, topical, 120 µg/eye, single eye drop 120 μg/eye OD, 6 h, read-out: Drug in OD Tissues, Cornea): 5130 ng/g; concentration at 24 h ([1]; cornea, topical, 120 µg/eye, single eye drop 120 μg/eye OD, 24 h, read-out: Drug in OD Tissues, Cornea): 542 ng/g; concentration at 0.5 h ([1]; plasma, other: eye drop applied to the eye, single eye drop 120 μg/eye OD, 0.5 h, read-out: Drug in plasma): 1 ng/mL; concentration at 3 h ([1]; plasma, other: eye drop applied to the eye, single eye drop 120 μg/eye OD, 3 h, read-out: Drug in plasma): 0.3 ng/mL; concentration at 6 h ([1]; plasma, other: eye drop applied to the eye, single eye drop 120 μg/eye OD, 6 h, read-out: Drug in plasma): 0.1 ng/mL; Cmax ([1]; posterior sclera, 120 ug, eye drop 120 µg/eye, read-out: Cmax in posterior sclera): 240 ng/g; concentration at 0.5 h ([1]; posterior sclera, topical, 120 µg/eye, single eye drop 120 μg/eye OD, 0.5 h, read-out: Drug in OD Tissues, Posterior sclera): 209 ng/g; concentration at 3 h ([1]; posterior sclera, topical, 120 µg/eye, single eye drop 120 μg/eye OD, 3 h, read-out: Drug in OD Tissues, Posterior sclera): 240 ng/g; concentration at 6 h ([1]; posterior sclera, topical, 120 µg/eye, single eye drop 120 μg/eye OD, 6 h, read-out: Drug in OD Tissues, Posterior sclera): 151 ng/g; concentration at 24 h ([1]; posterior sclera, topical, 120 µg/eye, single eye drop 120 μg/eye OD, 24 h, read-out: Drug in OD Tissues, Posterior sclera): 64.5 ng/g; Cmax ([1]; retina, 120 µg per eye, eye drop administration, read-out: retinal Cmax): 297 nM; Cmax ([1]; retina, 120 ug, eye drop 120 µg/eye, read-out: Cmax in retina): 92 ng/g; concentration at 0.5 h ([1]; retina, topical, 120 µg/eye, single eye drop 120 μg/eye OD, 0.5 h, read-out: Drug in OD Tissues, Retina): 92 ng/g; concentration at 3 h ([1]; retina, topical, 120 µg/eye, single eye drop 120 μg/eye OD, 3 h, read-out: Drug in OD Tissues, Retina): 49.1 ng/g; concentration at 6 h ([1]; retina, topical, 120 µg/eye, single eye drop 120 μg/eye OD, 6 h, read-out: Drug in OD Tissues, Retina): 58.9 ng/g; concentration at 24 h ([1]; retina, topical, 120 µg/eye, single eye drop 120 μg/eye OD, 24 h, read-out: Drug in OD Tissues, Retina): 6.8 ng/g; Cmax ([1]; vitreous humor, 120 ug, eye drop 120 µg/eye, read-out: Cmax in vitreous humor): 2.6 ng/mL; concentration at 0.5 h ([1]; vitreous humor, topical, 120 µg/eye, single eye drop 120 μg/eye OD, 0.5 h, read-out: Drug in vitreous humor): 2.6 ng/mL; concentration at 3 h ([1]; vitreous humor, topical, 120 µg/eye, single eye drop 120 μg/eye OD, 3 h, read-out: Drug in vitreous humor): 1.7 ng/mL; concentration at 6 h ([1]; vitreous humor, topical, 120 µg/eye, single eye drop 120 μg/eye OD, 6 h, read-out: Drug in vitreous humor): 1.2 ng/mL; concentration at 24 h ([1]; vitreous humor, topical, 120 µg/eye, single eye drop 120 μg/eye OD, 24 h, read-out: Drug in vitreous humor): 0.4 ng/mL; maximum ocular delivery efficiency (% administered dose), anterior sclera ([1]; eye drop 120 µg/eye): 0.2982%; maximum ocular delivery efficiency (% administered dose), ciliary body/iris ([1]; eye drop 120 µg/eye): 0.0174%; maximum ocular delivery efficiency (% administered dose), conjunctiva ([1]; eye drop 120 µg/eye): 1.3929%; maximum ocular delivery efficiency (% administered dose), cornea ([1]; eye drop 120 µg/eye): 0.8622%; maximum ocular delivery efficiency (% administered dose), retina ([1]; eye drop 120 µg/eye): 0.0047%; maximum ocular delivery efficiency (% administered dose), vitreous humor ([1]; eye drop 120 µg/eye): 0.0023%; drug concentration in the plasma ([1]; eye drop 120 µg/eye, throughout 0.5, 3 and 6 h post-dose): no more than 0.001 µg/mL; % Administered Dose, Anterior sclera [1, 2]: 0.2982%; % Administered Dose, Ciliary body/iris [1, 2]: 0.0084%; % Administered Dose, Conjunctiva [1, 2]: 1.3929%; % Administered Dose, Cornea [1, 2]: 0.8622%; % Administered Dose, Posterior sclera [1, 2]: 0.0153%; % Administered Dose, Retina [1, 2]: 0.0047%; % Administered Dose, Vitreous humor [1, 2]: 0.0023%; % Administered Dose, Anterior sclera [1, 3]: 0.1068%; % Administered Dose, Ciliary body/iris [1, 3]: 0.0174%; % Administered Dose, Conjunctiva [1, 3]: 0.4477%; % Administered Dose, Cornea [1, 3]: 0.4239%; % Administered Dose, Posterior sclera [1, 3]: 0.0323%; % Administered Dose, Retina [1, 3]: 0.0036%; % Administered Dose, Vitreous humor [1, 3]: 0.0012%; % Administered Dose, Anterior sclera [1, 4]: 0.2139%; % Administered Dose, Ciliary body/iris [1, 4]: 0.0137%; % Administered Dose, Conjunctiva [1, 4]: 0.1288%; % Administered Dose, Cornea [1, 4]: 0.3709%; % Administered Dose, Posterior sclera [1, 4]: 0.0197%; % Administered Dose, Retina [1, 4]: 0.0037%; % Administered Dose, Vitreous humor [1, 4]: 0.0007%; % Administered Dose, Anterior sclera [1, 5]: 0.0127%; % Administered Dose, Ciliary body/iris [1, 5]: 0.0021%; % Administered Dose, Conjunctiva [1, 5]: 0.1467%; % Administered Dose, Cornea [1, 5]: 0.0254%; % Administered Dose, Posterior sclera [1, 5]: 0.0088%; % Administered Dose, Retina [1, 5]: 0.0004%; % Administered Dose, Vitreous humor [1, 5]: 0.0004%; Drug in plasma ([1]; single eye drop 120 μg/eye OD, 24 h, LLOQ 0.0001 µg/mL): BLQ; Ki (human IP receptor): 0.5 nM; pKi (human IP receptor): 9.3
